This note sets out measurements from ChEMBL document CHEMBL4330075, “Discovery of Novel Quinoline-Chalcone Derivatives as Potent Antitumor Agents with Microtubule Polymerization Inhibitory Activity” (J Med Chem, 2019).

Data set [1] can be described thus: Toxicity in ICR mouse xenografted with […] cells assessed as decrease in body weight at 8 mg/kg, iv administered every 2 days for 21 days and measured every 2 days. The data set is classed as organism-based. The note with it: in vivo.
A short description of data set [2]: Antitumor activity against […] H22 cells xenografted in ICR mouse assessed as reduction tumor weight at 8 mg/kg, iv administered every 2 days for 21 days and measured every 2 days relative to control. It counts as functional.
A further data set concerns K562. As to the kind of experiment: Antiproliferative activity against human K562 cells after 72 hrs by MTT assay. It counts as functional, cell-based. The following applies: K562, 72 h.
For the next data set, the system named is KB. As to the kind of experiment: Antiproliferative activity against human KB cells after 72 hrs by MTT assay. It counts as functional, cell-based.
In another data set the test system is MDA-MB-231. The experiment in a line: Antiproliferative activity against human MDA-MB-231 cells after 72 hrs by MTT assay. The data set is classed as functional, cell-based. The note with it: MDA-MB-231, 72 h.
For a further data set, the system named is HCT-8. As to the kind of experiment: Antiproliferative activity against human HCT8 cells after 72 hrs by MTT assay. It counts as functional, cell-based. The following applies: HCT-8, 72 h.
The test system of the next data set is HepG2. The experiment in a line: cells. The following applies: Homo sapiens, HepG2, 72 h.
The nature of data set [3]: Selectivity index, ratio of IC50 for human LO2 cells to IC50 for human HepG2 cells. The following applies: LO2 cells and HepG2 cells, read-out: Ratio IC50. The data set is classed as toxicity.
The next data set relates to L02. As to the kind of experiment: Cytotoxicity against human LO2 cells after 72 hrs by MTT assay. The data set is classed as cell-based. The following applies: L02, 72 h.

With `CC(=O)O[C@H]1C(=O)[C@@]2(C)[C@H]([C@H](OC(=O)c3ccccc3)[C@]3(O)C[C@H](OC(=O)[C@H](O)[C@@H](NC(=O)c4ccccc4)c4ccccc4)C(C)=C1C3(C)C)[C@]1(OC(C)=O)CO[C@@H]1C[C@@H]2O` [PACLITAXEL], in data set [1], the Activity entry is “Toxic”. In addition, the inhibition in vivo at 8 mg/kg in [2] turned out to be 90.4%.

`COc1ccc(/C=C(\C)C(=O)c2cc(C)nc3ccccc23)cc1`: in the data set with K562, the IC50 was found to be 108 nM.

For `COc1ccc(/C=C/C(=O)c2cc(C)nc3ccccc23)cc1N`, the half-inhibitory concentration (IC50) with K562 turned out to be 850 nM; in the data set with KB, 189 nM; with MDA-MB-231, 195 nM; in the data set on HCT-8 it was 210 nM; in the data set with HepG2 it was 223 nM.

On to `COc1ccc(/C=C(\C)C(=O)c2cc(C)nc3ccccc23)cc1OC`, for which, in the data set on K562, it took 1060 nM to reach half-maximal inhibition (IC50).

For `COc1ccc(/C=C(\C)C(=O)c2cc(C)nc3ccccc23)cc1N`, the IC50 is 11 nM with K562; 923 nM with L02; 25 nM in the data set with KB; 63 nM in the data set with MDA-MB-231; 36 nM with HCT-8; 36 nM in the data set with HepG2. The selectivity ratio in data set [3] is 25.6.

In the case of `COc1ccc(/C=C\c2cc(OC)c(OC)c(OC)c2)cc1O` [COMBRETASTATIN A4], in the data set on K562, half-maximal inhibition (IC50) required 11 nM.

As to `COc1ccc(/C=C(\C)C(=O)c2cc(CO)nc3ccccc23)cc1O`, the IC50 in the data set with K562 was 50 nM; in the data set on KB, 231 nM; in the data set on MDA-MB-231, 209 nM; with HCT-8 it was 242 nM; in the data set with HepG2, 165 nM.

For `COc1ccc(/C=C(\C)C(=O)c2cc(N3CCCC3)nc3ccccc23)cc1O`, the IC50 in the data set on K562 worked out at 315 nM.

`C/C(=C\c1ccc2c(ccn2C)c1)C(=O)c1cc(C)nc2ccccc12`: the IC50 with K562 amounted to 74 nM; in the data set with KB it was 124 nM; with MDA-MB-231 it was 220 nM; in the data set on HCT-8 it was 135 nM; with HepG2, 111 nM.

In the case of `COc1ccc(/C=C(\C)C(=O)c2ccnc3ccccc23)cc1O`, the IC50 with K562 stood at 15 nM; in the data set with L02, 928 nM; in the data set with KB, 26 nM; in the data set with MDA-MB-231, 30 nM; with HCT-8, 37 nM; in the data set on HepG2 it was 24 nM. For the same molecule, the selectivity ratio in [3] stood at 38.7.

As for `COc1ccc(/C=C(\C)C(=O)c2cc(N(C)C)nc3ccccc23)cc1O`, the IC50 is 49 nM with K562; 43 nM with KB; 48 nM in the data set with MDA-MB-231; 52 nM with HCT-8; 57 nM in the data set with HepG2.

In the data set on K562, `COc1ccc(/C=C(\C)C(=O)c2cc(C)nc3ccccc23)cc1F` gave an IC50 of 69 nM.

`Cc1cc(C(=O)/C=C/c2cccc3[nH]ccc23)c2ccccc2n1` had a half-inhibitory concentration (IC50) with K562 above 1000 nM.

In the data set with K562, `CSc1ccc(/C=C(\C)C(=O)c2cc(C)nc3ccccc23)cc1` registered an IC50 of 563 nM.

With `COc1ccc(/C=C(\C)C(=O)c2cc(C=O)nc3ccccc23)cc1O`, the IC50 in the data set on K562 was 110 nM.

As to `COc1ccc2c(/C=C/C(=O)c3cc(C)nc4ccccc34)c[nH]c2c1`, the IC50 in the data set on K562 is above 1000 nM.
